Experimental data: the Deep4Chem optical property database
Blank lines part the entries; values can stand above or below the compound they belong to.

Experiment: photoluminescence quantum yield (fraction); solvent given as SMILES

Structure (SMILES): CC(=O)OC[C@@H]1O[C@H](N2C=CC3=Nc4nc(C)[n+](C)cc4CN3C2=O)[C@@H](O)[C@H]1O
- photoluminescence quantum yield (in CC#N): 0.89
- photoluminescence quantum yield (in CCO): 0.05
- photoluminescence quantum yield (in O): 0.2

Structure (SMILES): CC1(C)c2cccc(-c3nc(-c4ccccc4)nc(-c4ccccc4)n3)c2Oc2c(N3c4ccccc4Sc4ccccc43)cccc21
- photoluminescence quantum yield (in Cc1ccccc1): 0.077

Structure (SMILES): C[n+]1ccc(-c2cc[n+](C)cc2)cc1
- photoluminescence quantum yield (in CC#N): 0.02

Structure (SMILES): C1=[N+]2N=C(c3ccccc3)O[B-]2(c2ccc([B-]34OC(c5ccccc5)=N[N+]3=Cc3c(ccc5ccccc35)O4)cc2)Oc2ccc3ccccc3c21 (stereo not drawn)
- photoluminescence quantum yield (in C1CCOC1): 0.002

Structure (SMILES): Cc1ccc(C(=O)NN2C3=C(CC4=C2CCCC4=O)C(=O)CCC3)cc1
- photoluminescence quantum yield (in C1CCOC1): 0.31
- photoluminescence quantum yield (in CC#N): 0.55
- photoluminescence quantum yield (in CC(C)=O): 0.32
- photoluminescence quantum yield (in CCCCCO): 0.5
- photoluminescence quantum yield (in CO): 0.4
- photoluminescence quantum yield (in ClC(Cl)Cl): 0.77
- photoluminescence quantum yield (in ClCCl): 0.44

Structure (SMILES): CC(C)(C)C#Cc1cc2c(C#CC(C)(C)C)c(C#CC(C)(C)C)c3cc(C#CC(C)(C)C)cc4c(C#CC(C)(C)C)c(C#CC(C)(C)C)c(c1)c2c34
- photoluminescence quantum yield (in ClCCl): 0.12

Structure (SMILES): CCCCCCc1ccsc1-c1ccc2c(c1)C1=[N+]3C2=Cc2c4ccc(-c5sccc5CCCCCC)cc4c4n2[B-]3(Oc2ccccc21)Oc1ccccc1-4 (stereo not drawn)
- photoluminescence quantum yield (in C1CCOC1): 0

Structure (SMILES): COc1ccc2c3ccc(OC)cc3n(-c3ccc(-c4nnc(-c5c(C)cc(C)cc5C)o4)cc3C)c2c1
- photoluminescence quantum yield (in Cc1ccccc1): 0.06

Structure (SMILES): CC(C)(C)c1ccc(-c2cc(-c3ccc(-c4cc(-c5ccc(C(C)(C)C)cc5)c(C(=O)N5CCOCC5)s4)s3)sc2C(=O)N2CCOCC2)cc1
- photoluminescence quantum yield (in ClCCl): 0.26

Structure (SMILES): ClP1(Cl)=N[P@@](Cl)(Oc2ccc3ccc4cccc5ccc2c3c45)=N[P@@](Cl)(Oc2ccc3ccc4cccc5ccc2c3c45)=N1
- photoluminescence quantum yield (in ClCCl): 0.7

Structure (SMILES): COC(=O)C[C@H](NC(=O)[C@H](Cc1c[nH]c2ccccc12)NC(=O)OC(C)(C)C)C(=O)OC
- photoluminescence quantum yield (in CC#N): 0.36
- photoluminescence quantum yield (in CCOC(C)=O): 0.39
- photoluminescence quantum yield (in CO): 0.27

Structure (SMILES): Cc1nc(-c2ccc(N3c4ccccc4C(c4ccccc4)(c4ccccc4)c4ccccc43)cc2)cc(-c2ccc(N3c4ccccc4C(c4ccccc4)(c4ccccc4)c4ccccc43)cc2)n1
- photoluminescence quantum yield (in Cc1ccccc1): 0.54
- photoluminescence quantum yield (in O=P(c1ccccc1)(c1ccccc1)c1ccc2oc3ccc(P(=O)(c4ccccc4)c4ccccc4)cc3c2c1): 0.92

Structure (SMILES): O=C1/C(=C2\Nc3cc4ccc5cccc6ccc(c3C2=O)c4c56)Nc2cc3ccc4cccc5ccc(c21)c3c45
- photoluminescence quantum yield (in C1CCOC1): 0.0076

Structure (SMILES): CN(C)CCN(Cc1c2ccccc2cc2ccccc12)c1ccc([N+](=O)[O-])cc1[N+](=O)[O-]
- photoluminescence quantum yield (in C1CCCCC1): 0.0001
- photoluminescence quantum yield (in C1CCOC1): 0.0004
- photoluminescence quantum yield (in CC#N): 0.0185
- photoluminescence quantum yield (in CC(C)=O): 0.0043
- photoluminescence quantum yield (in CCO): 0.0087
- photoluminescence quantum yield (in CN(C)C=O): 0.0293
- photoluminescence quantum yield (in CO): 0.0093
- photoluminescence quantum yield (in CS(C)=O): 0.0426
- photoluminescence quantum yield (in ClC(Cl)Cl): 0.0009
- photoluminescence quantum yield (in ClCCl): 0.0057

Structure (SMILES): Cn1cc(/C=C/C(=O)c2ccccc2)c2ccccc21
- photoluminescence quantum yield (in C1CCOC1): 0.1
- photoluminescence quantum yield (in C1COCCO1): 0.114
- photoluminescence quantum yield (in CC#N): 0.343
- photoluminescence quantum yield (in CC(C)=O): 0.329
- photoluminescence quantum yield (in CC(C)O): 0.231
- photoluminescence quantum yield (in CCC(=O)CC): 0.209
- photoluminescence quantum yield (in CCCC#N): 0.217
- photoluminescence quantum yield (in CCCC(C)=O): 0.22
- photoluminescence quantum yield (in CCCCCCCCO): 0.345
- photoluminescence quantum yield (in CCCCCCO): 0.428
- photoluminescence quantum yield (in CCCCO): 0.333
- photoluminescence quantum yield (in CCCO): 0.5
- photoluminescence quantum yield (in CCO): 0.173
- photoluminescence quantum yield (in CN(C)C=O): 0.245
- photoluminescence quantum yield (in CO): 0.162
- photoluminescence quantum yield (in CS(C)=O): 0.62
- photoluminescence quantum yield (in ClC(Cl)Cl): 0.14
- photoluminescence quantum yield (in ClCCl): 0.394
- photoluminescence quantum yield (in NC=O): 0.277
- photoluminescence quantum yield (in O): 0.12
- photoluminescence quantum yield (in OC1CCCCC1): 0.778

Structure (SMILES): C[n+]1ccn(CCCCc2ccc3c(c2)c2ccccc2n3-c2cc(C#N)c(C#N)cc2-n2c3ccccc3c3cc(CCCCn4cc[n+](C)c4)ccc32)c1
- photoluminescence quantum yield (in CC#N): 0.026

Structure (SMILES): COc1ccc2c3c(c4ccc(OC)cc4c2c1)=[N+]1C(=C(c2c(C)cc(C)cc2C)c2cc4c5ccc(OC)cc5c5cc(OC)ccc5c4n2[B-]1(F)F)C=3
- photoluminescence quantum yield (in C1CCCCC1): 0.63
- photoluminescence quantum yield (in C1CCOC1): 0.5
- photoluminescence quantum yield (in CC#N): 0.33
- photoluminescence quantum yield (in Cc1ccccc1): 0.54
- photoluminescence quantum yield (in ClCCl): 0.53

Structure (SMILES): CC1=[N+]2C(=C(c3ccc(C=O)cc3)c3ccc(C)n3[B-]2(F)F)C=C1c1cc2n(c1)[B-](F)(F)[N+]1=CC=CC1=C2c1c(C)cc(C)cc1C
- photoluminescence quantum yield (in C1CCCCC1): 0.92
- photoluminescence quantum yield (in CCOC(C)=O): 0.2

Structure (SMILES): CC(C)[Si](C#Cc1c2cc3ccccc3cc2c(C#C[Si](C(C)C)(C(C)C)C(C)C)c2nc3c(nc12)C1c2ccccc2C3c2ccccc21)(C(C)C)C(C)C
- photoluminescence quantum yield (in CCCCCC): 0.54

Structure (SMILES): CC(C)Nc1cc2c(cc1F)c(=O)c1cc(F)c(NC(C)C)cc1n2C
- photoluminescence quantum yield (in CCO): 0.31

Structure (SMILES): CC(C)(C)c1ccc(-c2c(-c3ccc(-n4c5ccccc5c5ccccc54)cc3)c(C#N)c(-c3ccc(-n4c5ccccc5c5ccccc54)cc3)c(-c3ccc(C(C)(C)C)cc3)c2-c2ccc(C(C)(C)C)cc2)cc1
- photoluminescence quantum yield (in C1CCOC1): 0.803

Structure (SMILES): CC1=C(c2cccs2)C2=Cc3c(-c4cccs4)c(C)c(C)n3[B-](F)(F)[N+]2=C1C
- photoluminescence quantum yield (in CC#N): 0.52

Structure (SMILES): COc1ccc(C2=C(c3ccc([N+](=O)[O-])cc3)C(c3ccccc3)=[N+]3C2=Nc2c(-c4ccc(OC)cc4)c(-c4ccc([N+](=O)[O-])cc4)c(-c4ccccc4)n2[B-]3(F)F)cc1
- photoluminescence quantum yield (in Cc1ccccc1): 0.05

Structure (SMILES): CCOC(CN1C(=O)C2=C(c3cccs3)N(CC(OCC)OCC)C(=O)C2=C1c1cccs1)OCC
- photoluminescence quantum yield (in ClC(Cl)Cl): 0.41

Structure (SMILES): F[B-]1(F)n2cccc2C(c2ccccc2)=C2C=CC(c3cccc(OC4=[N+]5C(=C(c6ccccc6)c6cc(Br)c(-c7ccc[nH]7)n6[B-]5(F)F)C=C4Br)c3)=[N+]21
- photoluminescence quantum yield (in ClC(Cl)Cl): 0.18

Structure (SMILES): CCCCCCCCCCOc1ccc(C#Cc2ccc(C#Cc3ccc(OCCCCCCCCCC)c(OCCCCCCCCCC)c3)c3nc4c5ccccc5c5ccccc5c4nc23)cc1OCCCCCCCCCC
- photoluminescence quantum yield (in C1CCOC1): 0.23
- photoluminescence quantum yield (in Cc1ccccc1): 0.24
- photoluminescence quantum yield (in ClCCl): 0.22

Structure (SMILES): COCCC1(CCOC)c2cc(-c3ccc(OC)cc3)ccc2-c2ccc(-c3ccc4c(c3)C(CCOC)(CCOC)c3cc(-c5ccc(OC)cc5)ccc3-4)cc21
- photoluminescence quantum yield (in CN(C)C=O): 0.95

Structure (SMILES): Cc1nc2c(c[n+]1C)CN1C(=O)N([C@H]3O[C@@H](CO)[C@H](O)[C@@H]3O)C=CC1=N2
- photoluminescence quantum yield (in CC#N): 0.99
- photoluminescence quantum yield (in CC(C)=O): 0.94
- photoluminescence quantum yield (in CCCCO): 0.12
- photoluminescence quantum yield (in CCCO): 0.11
- photoluminescence quantum yield (in CCO): 0.14
- photoluminescence quantum yield (in CO): 0.14
- photoluminescence quantum yield (in O): 0.38
- photoluminescence quantum yield (in [2H]OC): 0.15
- photoluminescence quantum yield (in [2H]OCC): 0.14
- photoluminescence quantum yield (in [2H]O[2H]): 0.42

Structure (SMILES): CN(C)c1ccc(C2=Nc3sc4c(F)c(F)c(F)c(F)c4[n+]3[B-](F)(F)O2)cc1
- photoluminescence quantum yield (in C1CCOC1): 0.47
- photoluminescence quantum yield (in CC#N): 0.02
- photoluminescence quantum yield (in Cc1ccccc1): 0.65
- photoluminescence quantum yield (in ClCCl): 0.66

Structure (SMILES): N#Cc1ccc(-c2cn3cc(C#N)c[n+]3[n-]2)cc1
- photoluminescence quantum yield (in ClCCl): 0.45

Second part, the compound after the results:

- photoluminescence quantum yield (in C1CCCCC1): 0.22
- photoluminescence quantum yield (in C1CCOC1): 0.34
- photoluminescence quantum yield (in CC#N): 0.35
Structure (SMILES): COc1ccc2nc3c(nc2c1)c(-c1ccccc1)nn3C

- photoluminescence quantum yield (in CC1CCCCC1): 0.01
- photoluminescence quantum yield (in CC#N): 0.21
- photoluminescence quantum yield (in CO): 0.4
Structure (SMILES): COC(=O)C(Cc1ccc2oc(-c3ccncc3)nc2c1)NC(=O)OC(C)(C)C (stereo not drawn)

- photoluminescence quantum yield (in CCCCCC): 0.31
Structure (SMILES): COc1ccc(N2c3cc(OC)ccc3N=c3cc4c(cc32)=Nc2cc(C(C)(C)C)cc(C(C)(C)C)c2O4)cc1

- photoluminescence quantum yield (in ClC(Cl)Cl): 0.58
Structure (SMILES): CC(C)(C)/C=C/C1=[N+]2C(=C(c3c4ccccc4cc4ccccc34)c3ccc(/C=C/C(C)(C)C)n3[B-]2(F)F)C=C1

- photoluminescence quantum yield (in ClCCl): 0.07
Structure (SMILES): Cc1ccc(-c2ccc(C(=O)NC(C)(C)C)c3c2ccc2c4ccccc4c4ccccc4c23)cc1

- photoluminescence quantum yield (in ClC(Cl)Cl): 0.49
Structure (SMILES): F[B-]1(F)OC(c2ccc(Br)cc2)=Cc2ccc3ccccc3[n+]21

- photoluminescence quantum yield (in CC#N): 0.08
Structure (SMILES): C=Cc1cc2ccccc2oc1=O

- photoluminescence quantum yield (in CC#N): 0.095
- photoluminescence quantum yield (in c1ccccc1): 0.083
Structure (SMILES): Cc1ccc(-c2cc(-c3ccc(N(C)C)cc3)c3c(N)nc(N4CCCC4)c(C#N)c3n2)cc1

- photoluminescence quantum yield (in CS(C)=O): 0.2
Structure (SMILES): Cc1cccn2c1cc1c3ccccc3nc(-c3cccs3)c12

- photoluminescence quantum yield (in C1CCCCC1): 0.002
Structure (SMILES): COc1ccc(/C=C(\C)c2nc3ccccc3o2)cc1

- photoluminescence quantum yield (in ClCCl): 0.12
Structure (SMILES): CC(C)[Si](C#Cc1ccc(C#Cc2c3cc4ccccc4cc3c(C#C[Si](C(C)C)(C(C)C)C(C)C)c3cc4ccccc4cc23)cc1)(C(C)C)C(C)C

- photoluminescence quantum yield (in ClC(Cl)Cl): 0.391
Structure (SMILES): CC(C)(C)c1ccc2oc3nc4oc5ccc(-n6c7ccccc7c(=O)c7ccccc76)cc5c4cc3c2c1

- photoluminescence quantum yield (in ClCCl): 0.5
Structure (SMILES): CN(C)c1ccc(/C=C/c2cnc(/C=C/c3ccc(C#N)cc3)o2)cc1

- photoluminescence quantum yield (in CS(C)=O): 0.52
Structure (SMILES): COc1cc2sc3nc(-c4ccccc4)sc3c2cc1OC

- photoluminescence quantum yield (in C1CCCCC1): 0.26
Structure (SMILES): COc1ccc2c3c(c4ccc(OC)cc4c2c1)C(C)(C)c1ccc2ccccc2c1-3

- photoluminescence quantum yield (in ClCCl): 0.12
Structure (SMILES): C(=C\c1ncnc2ccccc12)/c1ccc(N2CCCCC2)cc1

- photoluminescence quantum yield (in ClCCl): 0.03
Structure (SMILES): CC(=O)c1ccc(C#Cc2ccc(-c3cc(N(C)C)c4ccccc4c3)cc2)cc1

- photoluminescence quantum yield (in CO): 0.4
Structure (SMILES): O=C(O)c1ccc(-c2cnc(-c3ccc(N(c4ccccc4)c4ccccc4)cc3)s2)cc1

- photoluminescence quantum yield (in CC#N): 0.16
- photoluminescence quantum yield (in CO): 0.2
- photoluminescence quantum yield (in ClCCl): 0.16
Structure (SMILES): CCCn1c2cccc3c2[c+]2c4c1cccc4n(CCC)c1cccc(c12)n3CCC

- photoluminescence quantum yield (in C1CCOC1): 0.033
- photoluminescence quantum yield (in CCCCCC): 0.872
- photoluminescence quantum yield (in ClC(Cl)Cl): 0.21
- photoluminescence quantum yield (in ClCCl): 0.03
Structure (SMILES): O=C1c2cccc3c(-n4c5ccccc5c5ccccc54)ccc(c23)C(=O)N1C1CCCCC1

- photoluminescence quantum yield (in ClCCl): 0.42
Structure (SMILES): Cc1ccc(-c2cnc3ccc4ccccc4n23)cc1

- photoluminescence quantum yield (in C1CCOC1): 0.2
- photoluminescence quantum yield (in CS(C)=O): 0.17
- photoluminescence quantum yield (in ClCCl): 0.19
Structure (SMILES): COc1cc(OC)cc(C2=C3C(C)=C(I)C(C)=[N+]3[B-](F)(F)n3c(/C=C/c4c[nH]c5ccccc45)c(I)c(C)c32)c1
